Measured values as given in patent US9073856B2, “Phenyl methanesulfonamide derivatives useful as MGAT-2 inhibitors” (Eli Lilly and Company, priority 2012, dated 2015).
Where a name gives a salt, the structure may show the parent alone.

Assays:
human MGAT-2 [1] = molecular target: T1, human MGAT-2 (Homo sapiens, UniProt Q3SYC2); assay: MGAT-2 Inhibitory Assay (14C-oleoyl-CoA, Microscint E extraction, SF9 cell lysate); assay type: biochemical; set-up: made in house; host or cells: Insect SF9 cells (supernatant of homogenate, unpurified); settings: human MGAT-2 expressed in SF9 cells, 90 minutes, room temperature; read-out: IC50 in MGAT-2 in vitro assay
Description: The in vitro inhibitory activity of compounds against human MGAT-2 is evaluated in this assay. MGAT-2 transfers an oleoyl group to monooleoyl-glycerol (“MAG”) from oleoyl-CoA to form dioleoyl-glycerol (“DAG”) in the intestinal triglyceride resynthesis pathway. The assay takes advantage of Microscint E extraction, which extracts hydrophobic molecules selectively over hydrophilic ones to separate the ^14C-oleoyl-CoA from ^14C-DAG.
Insect SF9 cells express human MGAT-2. Prepare the cell lysate in 20 mM of NaCl with protease inhibitor (Roche Cat#11873580001). Homogenize the SF9 cells expressing human MGAT-2 at 15,000 rpm for 20×2 seconds (PT-3100 Polytrone). Centrifuge the homogenate at 1000 g for 10 minutes at 4° C. Collect the supernatant into a separate tube for protein quantification and activity testing. Purify the glycerol monooleate substrate (Spectrum Chemical, CAS#25496-72-4) chromatographically. Prepare the monoacylglyerol (MAG) substrate in phospholipid vescicles (dioleoyl phosphatidylcholine “DOPC”). Prepare the MAG/DOPC vesicles at 20 mM concentration of total lipids (MAG and DOPC). Prepare different molar ratios of MAG to total lipids for either compound screening (8.9%) or compound kinetic studies (2.6-40%). Mix the appropriate amount of purified MAG and DOPC (Avanti Polar Lipids #850375C) in a glass tube under N2 gas and then dry under vacuum for 30 minutes. […]

human MGAT-2 [2] = molecular target: T1, human MGAT-2; assay: MGAT-2 Cell Assay (Caco-2 cells stably transfected with human MGAT-2, HDG substrate, LC-MS); assay type: cell-based; settings: HDG/DOPC
Description: The inhibitory activity of compounds against human MGAT-2 in a cell environment is evaluated in this assay. Caco-2 is a human colon carcinoma cell line and is often used as a model for intestinal epithelial cells. […] A MAG analogue, 2-O-Hexadecylglycerol (HDG), is utilized to detect cellular MGAT-2 activity, because HDG is not be hydrolyzed and the resulting product is readily monitored by mass spectrometry. The substrate is delivered to cells using phospholipid vesicles.
Seed the Caco2 cells onto 100 mm dishes to be 80% confluent after 24 hours in complete media (3/1 DMEM: F12+10% FBS+20 mM HEPES+gentamicin). Transfect the cells with hMGAT-2 plasmid (MGAT-2-pCDNA3.1-Hygro) using Lipofectamine 2000 (Invitrogen). After a 6 hour exposure to the transfection mixture, wash the cells 3× in PBS and then add media. Incubate the cells for an additional 18 hours incubation, trypsinize the cells and serially dilute them into 100 mm dishes. Added complete media+400 μg/ml hygromycin and incubate until clones appear. Isolate and transfer the clones into 24 well dishes and grow to confluency. Prepare the RNAs from these clones using a Qiagen RNAeasy kit. Perform Taqman analysis using an ABI inventoried assay (HS00228262) on a 7900 Sequence Detection System (ABI). Analyze the lysates from these clones western blot analysis using a goat polyclonal antibody (Santa Cruz, SC-32392 to confirm human MGAT-2 expression of a 38 Kdal protein corresponding to MGAT-2.
Mix 2-O-hexadecylglycerol (“HDG”, Biosynth Chemistry & Biology, # H-1806, 562.7 μl of 20 mg/ml) and DOPC (14.3 ml of 20 mg/ml) in a glass tube; dry first under N2 gas; and then under vacuum for additional 30 minutes. Add 20 ml of buffer (150 mM Tris-Cl pH 7.4, 250 mM Sucrose, 1 mM EDTA) to the dried HDG/DOPC mixture while sonicating until the solution becomes clear. Plate the Caco2 cells into a poly-D-lysine coated 96-well plate (the “Cell Plate”) at 37° C., 5% CO2 overnight. Remove the growth media and pretreat the cells with the test compound in DMEMF12 (3:1) media (GIBCO 93-0152DK) containing 2% BSA (Sigma) for 30 minutes. Treat the cells with one test compound in 2% BSA DMEMF12 (3:1) media containing 40 μM of oleic acid and 800 μM of 8.9% HDG/DOPC for 4 hours. Trypsinize the cells with 50 μl of trypsin and add 50 μl of PBS. Immediately freeze the cells on dry ice and store at −20° C. for LC-MS analysis. Extract the cells with chloroform/methanol as follows transfer the cells to a 2 ml Plate; wash the Cell Plate with 200 μL methanol and then transfer the methanol wash to the 2 ml Plate; wash the Cell Plate again with 200 μL PBS and transfer the PBS wash to the 2 ml Plate. Add chloroform (400 μL) with internal standard (19.52 ng/mL) DAG (15:0,15:0 (Sigma)), D5-TAG (39.03 ng/mL) CDN (16,16,16) to the 2 mL Plate. […]

TAG absorption = assay: Dog Oil Bolus Model (plasma TAG after olive oil bolus); assay type: in vivo; settings: male beagles, olive oil 5 ml/kg
Description: Inhibiting MGAT-2 found in the small intestine may be useful for treating hypertriglyceridemia caused by excessive fat intake. To assess the ability of the exemplified compounds to inhibit TAG absorption, twenty one male beagles (n=7 per treatment group) are enrolled for each study each dog selected to have a body weight between 9-13 kg. House the dogs in cages with a standard light cycle (12 hours light and 12 hours dark); at room temperature: 72±8° F.; and at 30%-70% relative humidity. Fast the dogs for 16 hours prior to the start of the study, then dose the fasted dogs with vehicle (1% HEC, 0.25%, Tween 80, Antifoam) or one of the test compounds. Bleed the dogs one hour after dosing, (0.5 ml from the jugular vein) for a time 0 sample. Dose the dogs with olive oil (Sigma Catalog#: O-1514, 5 ml/kg) immediately after collection of the time 0 sample. Collect samples into an EDTA tube on ice at 1.5, 2, 3, 5, 7, and 9 hrs post compound/vehicle dosing. […]
The analyte is the [M+NH4]+ ion of TAG 18:1 18:1 18:1, which has a mass of 902.8 m/z; the internal standard is D5 TAG 16:0 16:0 16:0, which has a mass of 829.8 m/z. […] The percent inhibition of plasma triglyceride is calculated as follows: the (oil bolus group mean of net TAG AUC−oil bolus group mean of net TAG AUC with compound treatment/oil bolus group mean of net TAG AUC)*100. […]

[3] = Caco-2 cells expressing human MGAT-2, 4 hours, read-out: Basal Triglyceride Caco 2 Relative IC50

T1 sequence (Q3SYC2 whole entry): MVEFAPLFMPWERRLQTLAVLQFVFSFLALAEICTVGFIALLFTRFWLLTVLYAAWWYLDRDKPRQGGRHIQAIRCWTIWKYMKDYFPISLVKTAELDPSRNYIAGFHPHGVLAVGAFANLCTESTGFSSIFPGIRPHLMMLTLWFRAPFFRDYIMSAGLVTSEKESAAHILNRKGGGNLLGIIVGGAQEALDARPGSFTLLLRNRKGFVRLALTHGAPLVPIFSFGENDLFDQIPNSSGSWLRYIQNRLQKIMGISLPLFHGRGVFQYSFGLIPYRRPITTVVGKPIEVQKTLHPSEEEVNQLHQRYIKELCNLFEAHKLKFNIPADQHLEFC

SMILES	IC50 (human MGAT-2 [1]) [µM]	IC50 (human MGAT-2 [2]; Basal Triglyceride Caco 2 Relative IC50, Caco-2 cells expressing human MGAT-2, 4 hours) [µM]	inhibition of TAG absorption (percent inhibition of net plasma TAG AUC) (TAG absorption; dosed at 10 mg/kg) [%]	inhibition of TAG absorption (TAG absorption; dosed at 30 mg/kg)	IC50 (human MGAT-2 [2]; [3]) [µM]
CC(C)(C)C1CCN(Cc2ccc([C@H](NS(C)(=O)=O)C(F)(F)F)cc2)CC1.Cl [Example 1, N-[(1S)-1-[4-[(4-tert-Butylpiperidin-1-yl)methyl]phenyl]-2,2,2-trifluoro-ethyl]methanesulfonamide hydrochloride]	< 0.012	0.0582	69	completely inhibited	
CC(C)(C)C1CCN(Cc2ccc([C@H](NS(C)(=O)=O)C(F)(F)F)cc2)CC1 [Example 2, N-[(1S)-1-{4-[(4-tert-butylpiperidin-1-yl)methyl]phenyl}-2,2,2-trifluoroethyl]methanesulfonamide phosphoric acid]					0.102
CS(=O)(=O)N[C@@H](c1ccc(CN2CCC(c3ccc(F)cc3)CC2)cc1)C(F)(F)F [Example 4, N-[(1S)-2,2,2-trifluoro-1-(4-{[4-(4-fluorophenyl)piperidin-1-yl]methyl}phenyl)ethyl]methanesulfonamide hydrochloride]					0.0177
C[C@@H](NS(C)(=O)=O)c1ccc(CN2CCC(c3ccc(F)cc3)CC2)cc1 [Example 5, N-[(1R)-1-(4-{[4-(4-fluorophenyl)piperidin-1-yl]methyl}phenyl)ethyl]methanesulfonamide hydrochloride]					0.0642
